According to patent US10993912B2, “Carrier-antibody compositions and methods of making and using the same” (MAYO FOUNDATION FOR MEDICAL EDUCATION AND RESEARCH, priority 2014, dated 2021):

Tests used:
ABX [1] = target: T1, ABX (Homo sapiens, UniProt P02768); experiment: Binding of cisplatin to ABX, free cisplatin by HPLC; settings: ABX 5 mg/ml, cisplatin 0.5 mg/ml, room temperature 30 minutes
T1 construct: purchased Celgene Corporation, Summit, N.J

[2] = test system: A375 human melanoma cells; experiment: A375 xenograft efficacy in athymic nude mice; assay type: in vivo; settings: Example 5; ABX 30 mg/kg, BEV 12 mg/kg, tumors about 700 mm^3 at treatment
Description: Tumor response was determined at day 7 post-treatment by the percent change in tumor size from the day of treatment.
In vivo experiments were performed at least 2 times. The number of mice required for those experiments was determined by power analysis. Mouse tumors were measured 2-3 times/week and mice were sacrificed when the tumor was 10% by weight. […] The end point of the mouse studies was median survival. Kaplan-Meier curves were generated and Mantle-Cox test was performed to determine significance of median survival between treatment groups. The in vitro results presented are representative of at least 5 repeated experiments. Statistical analyses of in vitro and in vivo percent change from baseline experiments were done using the Student's t-test.
(§1) To test tumor efficacy, 1×10^6 A375 human melanoma cells were implanted into the right flank of athymic nude mice (Harlan Sprague Dawley, Indianapolis, Ind.). […] Tumor size was monitored 3 times/week and tumor volume was calculated with the following equation: (length*width^2)/2. Mice were sacrificed when the tumor size equaled 10% of the mouse body weight or about 2500 mm^3. The day 7 percent change from baseline was calculated as follows: [(tumor size on treatment day-tumor size on day 7)/tumor size on treatment day]*100.

ABX [3] = target: T1, ABX; experiment: Bio-Layer Interferometry (BLItz) binding assay of antibody and ABX; settings: for dependence of binding affinity to ABX on pH / temperature: pH 3, 5, 7, 9, for BEV also RT, 37° C. and 58° C.
Description: The association and dissociation constants were calculated using the BLItz software.

[4] = test system: A375 human melanoma cells; experiment: A375 xenograft, pretreatment with BEV before AB160; assay type: in vivo, athymic nude mice; settings: 12 mg/kg dose
Excerpt: Data is represented at day 7-post and 10-day treatment as tumor volume in mm^3.
Data is represented at day 7-post and day 10-post treatment as tumor volume in mm^3. F 11A-E track tumor size over 10 days. […] See also FIG. 11F and FIG. 11G.

[5] = test system: Daudi human lymphoma cells; experiment: Daudi xenograft efficacy in athymic nude mice; assay type: in vivo; settings: ABX 30 mg/kg, rituximab 12 mg/kg
Description: Tumor response was determined at day 7 post-treatment by the percent change in tumor size from the first day of treatment.
as §1

| Compound | cisplatin remaining in the supernatant (ABX [1]) [%] | median survival [2] [days] | binding affinity to ABX (in words) (ABX [3]) | dependence of binding affinity to ABX on pH / temperature (ABX [3]) | therapeutic effect of BEV alone [4] | median survival [5] [days] |
| --- | --- | --- | --- | --- | --- | --- |
| N.N.[Cl][Pt][Cl] [cisplatin] | 40 | – | – | – | – | – |
| bevacizumab | – | 14 | picomolar range | highest binding affinity observed when the particles are formed at pH 5 and 58 °C | not therapeutic | – |
| rituximab | – | – | picomolar range | decreased with higher pH | – | 12 |
